From PubChem BioAssay AID248 (DTP/NCI, 2004) come the findings set out here.

SMILES strings stand for the structures. Values joined by “and” are separate entries in the source; they are usually repeats but may differ in a detail not shown here. Identical values can stand only once. Inconclusive results and toxic doses are left out.

This assay deals with L1210 leukemia ip in BDF1 mice, survival T/C. Briefly: NCI In Vivo Anticancer Drug Screen. Data for tumor model L1210 Leukemia (intraperitoneal) in B6D2F1 (BDF1) mice. Conditions: endpoint: mean survival time, higher = longer survival. The gist of the method:
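Transplanted-tumor mice were given test agent; controls received vehicle only. Survival readings from the two groups were divided (treated over control).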

[1] abbreviates: dose: 400.0 mg/kg/injection, schedule: Q01DX001 (ip), vehicle: carboxymethylcellulose (CMC).
Setting [2] is: dose: 50.0 mg/kg/injection, schedule: Q01DX001 (ip), vehicle: saline with Tween-80.
The mark [3] stands for this setting: dose: 100.0 mg/kg/injection, schedule: Q01DX001 (ip), vehicle: saline with Tween-80.
[4] abbreviates: dose: 100.0 mg/kg/injection, schedule: Q01DX001 (ip), vehicle: saline.
[5] abbreviates: dose: 100.0 mg/kg/injection, schedule: Q04DX003 (ip), vehicle: saline.
[6] abbreviates: dose: 200.0 mg/kg/injection, schedule: Q01DX001 (ip), vehicle: saline.
[7] abbreviates: dose: 200.0 mg/kg/injection, schedule: Q04DX003 (ip), vehicle: saline.
Where [8] appears, read: dose: 400.0 mg/kg/injection, schedule: Q01DX001 (ip), vehicle: saline.
[9] abbreviates: dose: 100.0 mg/kg/injection, schedule: Q01DX009 (ip), vehicle: Klucel (hydroxypropylcellulose) (HPC).
The mark [10] stands for this setting: dose: 200.0 mg/kg/injection, schedule: Q01DX009 (ip), vehicle: Klucel (hydroxypropylcellulose) (HPC).

Turning to `COc1ccc2c(c1)Cc1cc(NC(=O)N(CCCl)N=O)ccc1-2`, the T/C (dose: 10.0 mg/kg/injection, schedule: Q01DX009 (ip), vehicle: saline) was 151 % of control; the T/C (dose: 20.0 mg/kg/injection, schedule: Q01DX009 (ip), vehicle: saline) is 175 % of control; the T/C (dose: 25.0 mg/kg/injection, schedule: Q01DX001 (ip), vehicle: other) is 122 % of control; the T/C (dose: 33.0 mg/kg/injection, schedule: Q01DX009 (ip), vehicle: carboxymethylcellulose (CMC)) was 188 % of control; the T/C (dose: 45.0 mg/kg/injection, schedule: Q01DX001 (ip), vehicle: other) is 123 % of control; the T/C (dose: 50.0 mg/kg/injection, schedule: Q01DX009 (ip), vehicle: carboxymethylcellulose (CMC)) is 163 % of control. The T/C is, setting by setting: (dose: 80.0 mg/kg/injection, schedule: Q01DX009 (ip), vehicle: other) 123 % of control; (dose: 177.0 mg/kg/injection, schedule: Q01DX001 (ip), vehicle: carboxymethylcellulose (CMC)) 182 % of control; (dose: 177.0 mg/kg/injection, schedule: Q01DX001 (ip), vehicle: other) 154 % of control; (dose: 177.0 mg/kg/injection, schedule: Q01DX009 (ip), vehicle: carboxymethylcellulose (CMC)) 107 % of control; (dose: 266.0 mg/kg/injection, schedule: Q01DX001 (ip), vehicle: carboxymethylcellulose (CMC)) 178 % of control; (dose: 266.0 mg/kg/injection, schedule: Q01DX001 (ip), vehicle: other) 154 % of control. The T/C by setting is: (dose: 266.0 mg/kg/injection, schedule: Q01DX009 (ip), vehicle: carboxymethylcellulose (CMC)) 97 % of control; under setting [1], 193 % of control; (dose: 400.0 mg/kg/injection, schedule: Q01DX009 (ip), vehicle: carboxymethylcellulose (CMC)) 96 % of control; (dose: 600.0 mg/kg/injection, schedule: Q01DX001 (ip), vehicle: carboxymethylcellulose (CMC)) 186 % of control.
As for `CCCCOP(=O)(OCCCC)C(C)c1ccccc1` (centres undefined), the T/C is 104 % of control (dose: 12.5 mg/kg/injection, schedule: Q04DX003 (ip), vehicle: saline with Tween-80); 95 % of control and 100 % of control (dose: 25.0 mg/kg/injection, schedule: Q01DX009 (ip), vehicle: saline with Tween-80); 95 % of control and 87 % of control (dose: 25.0 mg/kg/injection, schedule: Q04DX002 (ip), vehicle: saline with Tween-80); 98 % of control (dose: 25.0 mg/kg/injection, schedule: Q04DX003 (ip), vehicle: saline with Tween-80); 107 % of control under setting [2]; 99 % of control and 104 % of control (dose: 50.0 mg/kg/injection, schedule: Q01DX009 (ip), vehicle: saline with Tween-80). Besides, the T/C runs as follows: (dose: 50.0 mg/kg/injection, schedule: Q04DX002 (ip), vehicle: saline with Tween-80) 103 % of control and 90 % of control; (dose: 50.0 mg/kg/injection, schedule: Q04DX003 (ip), vehicle: saline with Tween-80) 93 % of control and 106 % of control; under setting [3], 107 % of control; (dose: 100.0 mg/kg/injection, schedule: Q04DX002 (ip), vehicle: saline with Tween-80) 94 % of control and 96 % of control and 108 % of control; (dose: 200.0 mg/kg/injection, schedule: Q01DX001 (ip), vehicle: saline with Tween-80) 94 % of control.
`O/N=C\c1cc[n+](CC[n+]2ccc(/C=N/O)cc2)cc1`: the T/C (dose: 100.0 mg/kg/injection, schedule: Q04DX002 (ip), vehicle: other) is 112 % of control.
Regarding `O=C(O)c1cc(Cl)c(Cl)cc1Cl`, the T/C is 104 % of control (dose: 50.0 mg/kg/injection, schedule: Q01DX009 (ip), vehicle: saline); 93 % of control under setting [4]; 98 % of control (dose: 100.0 mg/kg/injection, schedule: Q01DX009 (ip), vehicle: saline); 100 % of control under setting [5]; 86 % of control under setting [6]; 102 % of control under setting [7]. In addition, under setting [8], the T/C is 94 % of control.
For `CCCC(=O)OC(C(=O)OCC)c1ccccc1` (centres undefined), the T/C was 98 % of control (dose: 100.0 mg/kg/injection, schedule: Q01DX009 (ip), vehicle: saline with Tween-80); 106 % of control (dose: 200.0 mg/kg/injection, schedule: Q01DX009 (ip), vehicle: saline with Tween-80); 96 % of control (dose: 400.0 mg/kg/injection, schedule: Q01DX009 (ip), vehicle: saline with Tween-80).
Consider `Oc1ccccc1C1N(Cc2ccc(N(CCCl)CCCl)cc2Cl)CCCN1Cc1ccc(N(CCCl)CCCl)cc1Cl`, for which the T/C runs as follows: (dose: 50.0 mg/kg/injection, schedule: Q01DX001 (ip), vehicle: carboxymethylcellulose (CMC)) 96 % of control; (dose: 100.0 mg/kg/injection, schedule: Q01DX001 (ip), vehicle: carboxymethylcellulose (CMC)) 90 % of control; (dose: 200.0 mg/kg/injection, schedule: Q01DX001 (ip), vehicle: carboxymethylcellulose (CMC)) 94 % of control; under setting [1], 102 % of control.
Turning to `COC(=O)/C(=C\c1ccccc1)CN1CCCCC1`, the T/C is 101 % of control (dose: 25.0 mg/kg/injection, schedule: Q01DX001 (ip), vehicle: saline with Tween-80); 93 % of control under setting [2]; 104 % of control under setting [3].
For the compound `Nc1nc(=O)n(C2CC(O)C(CO)O2)cc1F` (centres undefined), the T/C (dose: 30.0 mg/kg/injection, schedule: Q01DX Z (ip), vehicle: saline) was 105 % of control.
Turning to `COc1cc(/C=C\[N+](=O)[O-])ccc1OCc1ccccc1`, the T/C reads like this: (dose: 50.0 mg/kg/injection, schedule: Q01DX009 (ip), vehicle: Klucel (hydroxypropylcellulose) (HPC)) 94 % of control; (dose: 50.0 mg/kg/injection, schedule: Q04DX003 (ip), vehicle: Klucel (hydroxypropylcellulose) (HPC)) 98 % of control; under setting [9], 103 % of control; (dose: 100.0 mg/kg/injection, schedule: Q04DX003 (ip), vehicle: Klucel (hydroxypropylcellulose) (HPC)) 104 % of control; under setting [10], 95 % of control; (dose: 200.0 mg/kg/injection, schedule: Q04DX003 (ip), vehicle: Klucel (hydroxypropylcellulose) (HPC)) 91 % of control.
On to `O=C(CNC(=O)OCc1ccccc1)Nc1ccc(S(=O)(=O)c2ccc(NC(=O)CNC(=O)OCc3ccccc3)cc2)cc1`, for which the T/C reads like this: (dose: 50.0 mg/kg/injection, schedule: Q01DX001 (ip), vehicle: saline) 96 % of control; under setting [4], 96 % of control; under setting [6], 96 % of control; under setting [8], 90 % of control.
Take `Cc1ccc(S(=O)(=O)C2CCCC/C2=N\Nc2ccc([N+](=O)[O-])cc2[N+](=O)[O-])cc1` (centres undefined): the T/C (dose: 100.0 mg/kg/injection, schedule: Q01DX001 (ip), vehicle: other) was 105 % of control; the T/C (dose: 200.0 mg/kg/injection, schedule: Q01DX001 (ip), vehicle: other) is 103 % of control; the T/C (dose: 400.0 mg/kg/injection, schedule: Q01DX001 (ip), vehicle: other) was 96 % of control.
With `CN/C=C1\CCOC1=O`, the T/C (dose: 100.0 mg/kg/injection, schedule: Q04DX002 (ip), vehicle: saline) is 124 % of control; the T/C (dose: 200.0 mg/kg/injection, schedule: Q04DX002 (ip), vehicle: saline) is 101 % of control; the T/C (dose: 400.0 mg/kg/injection, schedule: Q04DX002 (ip), vehicle: saline) was 90 % of control.
Regarding `O=C(COC(=O)c1c(Cl)c(Cl)c(Cl)c(Cl)c1C(=O)O)c1ccc(-c2ccccc2)cc1`, the T/C is, setting by setting: under setting [4], 94 % of control; under setting [6], 102 % of control; under setting [8], 91 % of control.
`CNC(=S)N/N=C(\C=N\NC(=S)NC)c1ccc(OC)cc1`: the T/C is, setting by setting: (dose: 100.0 mg/kg/injection, schedule: Q04DX002 (ip), vehicle: Klucel (hydroxypropylcellulose) (HPC)) 101 % of control; (dose: 200.0 mg/kg/injection, schedule: Q04DX002 (ip), vehicle: Klucel (hydroxypropylcellulose) (HPC)) 101 % of control; (dose: 400.0 mg/kg/injection, schedule: Q04DX002 (ip), vehicle: Klucel (hydroxypropylcellulose) (HPC)) 105 % of control.
Regarding `c1ccc(CC(Cc2ccccc2)=[N+]2C3CCCC2CC3)cc1`, the T/C by setting is: under setting [5], 92 % of control; under setting [7], 101 % of control; (dose: 400.0 mg/kg/injection, schedule: Q04DX003 (ip), vehicle: saline) 111 % of control.
`CCC(C)NC(=O)NC` (centres undefined): the T/C under setting [9] was 100 % of control; the T/C under setting [10] is 97 % of control; the T/C (dose: 400.0 mg/kg/injection, schedule: Q01DX009 (ip), vehicle: Klucel (hydroxypropylcellulose) (HPC)) is 101 % of control.
